Results published in patent publication US20210145802A1, “THERAPY FOR OPHTHALMOLOGICAL CONDITIONS” (WREN THERAPEUTICS LIMITED, priority 2018, published 2021).

Each compound was assayed against T1, Aβ42 (Homo sapiens, UniProt P05067) (assay: ThT kinetic assay of Aβ42 fibril formation (unseeded)). Details: 2 μM Aβ42; 5× drug:protein concentration.
T1 construct: […]; made in house; host or cells: E. coli BL21 Gold (DE3)
Format: biochemical
Text: The recombinant Aβ(M1-42) peptide ([…]-SNKGAIIGLMVGGVVIA [SEQ ID NO: 1]), here called Aβ42, was expressed in the E. coli BL21 Gold (DE3) strain (Stratagene, CA, U.S.A.) and purified as described previously with slight modifications. Briefly, the purification procedure involved sonication of E. coli cells, dissolution of inclusion bodies in 8 M urea, and ion exchange in batch mode on diethylaminoethyl cellulose resin and lyophylization. The lyophilized fractions were further purified using Superdex 75 HR 26/60 column (GE Healthcare, Buckinghamshire, U.K.) and eluates were analyzed using SDS-PAGE for the presence of the desired protein product. The fractions containing the recombinant protein were combined, frozen using liquid nitrogen, and lyophilized again.
Except for Netoglitazone, which was custom synthesised by GVK BIO, all small molecules were purchased with a purity greater than 99%. Small molecules were first solubilized in 100% DMSO to a concentration of 5 mM, and then diluted in the peptide solution to reach a final DMSO concentration of maximum 1-3%. We verified that the addition of DMSO in the reaction mixture has no effect on Aβ42 aggregation.
Solutions of monomeric peptides were prepared by dissolving the lyophilized Aβ42 peptide in 6 M GuHCl. Monomeric forms were purified from potential oligomeric species and salt using a Superdex 75 10/300 GL column (GE Healthcare) at a flowrate of 0.5 mL/min, and were eluted in 20 mM sodium phosphate buffer, pH 8 supplemented with 200 μM EDTA and 0.02% NaN3. The centre of the peak was collected, and the peptide concentration was determined from the absorbance of the integrated peak area using ε280=1490 L mol^−1 cm^−1. The obtained monomer was diluted with buffer to the desired concentration and supplemented with 20 μM Thioflavin T (ThT) from a 1 mM stock. All samples were prepared in low binding Eppendorf tubes on ice using careful pipetting to avoid introduction of air bubbles. Each sample was then pipetted into multiple wells of a 96-well half-area, low-binding, clear bottom and PEG coating plate (Corning 3881), 80 μL per well. Aβ42 kinetics have been performed in the absence or the presence of Netoglitazone, Mitoglitazone, Rosiglotazone, Rivoglitazone, Pioglitazone, Ciglitazone, Englitazone, Darglitazone, Troglitazone and B alaglitazone.

T1 sequence (P05067 671-713): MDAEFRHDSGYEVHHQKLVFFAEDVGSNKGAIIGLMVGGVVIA

Question: With `Cn1c(COc2ccc(CC3SC(=O)NC3=O)cc2)nc2ccccc2c1=O` (stereo not shown) [Balaglitazone] as the compound, how does the “delay of Aβ42 aggregation” value read?
Answer: Its value is “little to no delay”.

Question: Which “delay of Aβ42 aggregation” value does the source give for `Cc1oc(-c2ccccc2)nc1CCC(=O)c1ccc(CC2SC(=O)NC2=O)cc1` (stereo not shown) [Darglitazone] here?
Answer: The value was “observed to delay”.

Question: Which “delay of Aβ42 aggregation” value does the source give for `CCc1ccc(C(=O)COc2ccc(CC3SC(=O)NC3=O)cc2)nc1` (stereo not shown) [Mitoglitazone] here?
Answer: Its value is “little to no delay”.

Question: `COc1ccc2nc(COc3ccc(CC4SC(=O)NC4=O)cc3)n(C)c2c1` (stereo not shown) [Rivoglitazone] was tested. Which “delay of Aβ42 aggregation” value did it give?
Answer: The value was “little to no delay”.
